Measured values from PubChem BioAssay AID256 (DTP/NCI, 2004).
Inconclusive results and toxic doses are left out.

Test system: CD2F1 mice, L1210 leukemia ip, survival T/C
Assay: NCI In Vivo Anticancer Drug Screen. Data for tumor model L1210 Leukemia (intraperitoneal) in CD2F1 (CDF1) mice
Settings: higher = longer survival
Method in brief: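 In this screen, transplantable tumors were grown in mice given either the compound or its vehicle. Results were expressed as the treated measurement relative to the control measurement.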

[1] = endpoint: mean survival time, dose: 100.0 mg/kg/injection, schedule: Q01DX009 (ip), vehicle: saline with Tween-80
[2] = endpoint: mean survival time, dose: 200.0 mg/kg/injection, schedule: Q01DX009 (ip), vehicle: saline with Tween-80
[3] = endpoint: mean survival time, dose: 400.0 mg/kg/injection, schedule: Q01DX009 (ip), vehicle: saline with Tween-80

`O.[Cl][Pt].[NH-]CC[S-]` was tested, and the T/C (endpoint: mean survival time, dose: 12.5 mg/kg/injection, schedule: Q04DX003 (ip), vehicle: distilled water + Tween-80) was 90 % of control, the T/C (endpoint: mean survival time, dose: 25.0 mg/kg/injection, schedule: Q04DX003 (ip), vehicle: distilled water + Tween-80) was 102 % of control and the T/C (endpoint: mean survival time, dose: 50.0 mg/kg/injection, schedule: Q04DX003 (ip), vehicle: distilled water + Tween-80) was 95 % of control. The T/C (endpoint: mean survival time, dose: 100.0 mg/kg/injection, schedule: Q04DX003 (ip), vehicle: distilled water + Tween-80) was 100 % of control.
With `COc1cccc(C(=O)c2ccncc2C(=O)O)c1OC` the T/C (endpoint: mean survival time, dose: 12.5 mg/kg/injection, schedule: Q01DX009 (ip), vehicle: other) was 110 % of control, the T/C (endpoint: mean survival time, dose: 25.0 mg/kg/injection, schedule: Q01DX009 (ip), vehicle: other) was 100 % of control and the T/C (endpoint: mean survival time, dose: 50.0 mg/kg/injection, schedule: Q01DX009 (ip), vehicle: other) was 93 % of control. For the same molecule, the T/C (endpoint: mean survival time, dose: 100.0 mg/kg/injection, schedule: Q01DX009 (ip), vehicle: other) was 96 % of control and the T/C (endpoint: mean survival time, dose: 200.0 mg/kg/injection, schedule: Q01DX009 (ip), vehicle: other) was 96 % of control.
In the case of `Cn1ncc2c(N)nc(-c3ccccn3)nc21`, the T/C (endpoint: mean survival time, dose: 12.5 mg/kg/injection, schedule: Q01DX005 (ip), vehicle: water) is reported as 97 % of control, the T/C (endpoint: mean survival time, dose: 25.0 mg/kg/injection, schedule: Q01DX005 (ip), vehicle: water) is reported as 94 % of control and the T/C (endpoint: mean survival time, dose: 50.0 mg/kg/injection, schedule: Q01DX005 (ip), vehicle: water) is reported as 91 % of control. For the same molecule, the T/C (endpoint: mean survival time, dose: 100.0 mg/kg/injection, schedule: Q01DX005 (ip), vehicle: water) was 94 % of control.
In the case of `CC(C)CN(CC(C)C)c1ccc([N+](=O)[O-])cc1[N+](=O)[O-]`, the T/C [1] is reported as 97 % of control, the T/C [2] is reported as 95 % of control and the T/C [3] is reported as 94 % of control.
In the case of `CC(C)NC(=O)N(CCCCBr)N=O`, the T/C (endpoint: median survival time, dose: 12.0 mg/kg/injection, schedule: Q01DX009 (ip), vehicle: Klucel (hydroxypropylcellulose) (HPC)) is reported as 108 % of control, the T/C (endpoint: median survival time, dose: 25.0 mg/kg/injection, schedule: Q01DX009 (ip), vehicle: Klucel (hydroxypropylcellulose) (HPC)) is reported as 116 % of control and the T/C (endpoint: median survival time, dose: 50.0 mg/kg/injection, schedule: Q01DX009 (ip), vehicle: Klucel (hydroxypropylcellulose) (HPC)) is reported as 124 % of control. The T/C (endpoint: median survival time, dose: 100.0 mg/kg/injection, schedule: Q01DX009 (ip), vehicle: Klucel (hydroxypropylcellulose) (HPC)) was 160 % of control and the T/C (endpoint: median survival time, dose: 200.0 mg/kg/injection, schedule: Q01DX009 (ip), vehicle: Klucel (hydroxypropylcellulose) (HPC)) was 112 % of control.
In the case of `COc1cc(OC)c(/C=C/c2cc3c4ccccc4ccc3[n+](C)c2)c(OC)c1`, the T/C (endpoint: mean survival time, dose: 12.5 mg/kg/injection, schedule: Q01DX001 (ip), vehicle: saline with Tween-80) is reported as 104 % of control, the T/C (endpoint: mean survival time, dose: 25.0 mg/kg/injection, schedule: Q01DX001 (ip), vehicle: saline with Tween-80) is reported as 112 % of control and the T/C (endpoint: mean survival time, dose: 50.0 mg/kg/injection, schedule: Q01DX001 (ip), vehicle: saline with Tween-80) is reported as 101 % of control. For the same molecule, the T/C (endpoint: mean survival time, dose: 100.0 mg/kg/injection, schedule: Q01DX001 (ip), vehicle: saline with Tween-80) was 94 % of control.
In the case of `C/C(=N\Nc1nc2ccccc2s1)c1ccc2c(c1)Sc1ccccc1O2`, the T/C (endpoint: mean survival time, dose: 37.5 mg/kg/injection, schedule: Q01DX009 (ip), vehicle: saline) is reported as 92 % of control, the T/C (endpoint: mean survival time, dose: 75.0 mg/kg/injection, schedule: Q01DX009 (ip), vehicle: saline) is reported as 95 % of control and the T/C (endpoint: mean survival time, dose: 150.0 mg/kg/injection, schedule: Q01DX009 (ip), vehicle: saline) is reported as 98 % of control.
For `CC(C)O.CC(C)O.CC(C)O.[La]`, the T/C (endpoint: mean survival time, dose: 100.0 mg/kg/injection, schedule: Q04DX003 (ip), vehicle: saline) was 97 % of control, the T/C (endpoint: mean survival time, dose: 200.0 mg/kg/injection, schedule: Q04DX003 (ip), vehicle: saline) was 87 % of control and the T/C (endpoint: mean survival time, dose: 400.0 mg/kg/injection, schedule: Q04DX003 (ip), vehicle: saline) was 89 % of control.
`CCOC(=O)C1CN(C(=O)OCC)CC1=O` (stereo not given) was tested, and the T/C (endpoint: mean survival time, dose: 50.0 mg/kg/injection, schedule: Q01DX001 (ip), vehicle: other) was 103 % of control, the T/C (endpoint: mean survival time, dose: 100.0 mg/kg/injection, schedule: Q01DX001 (ip), vehicle: other) was 106 % of control and the T/C (endpoint: mean survival time, dose: 200.0 mg/kg/injection, schedule: Q01DX001 (ip), vehicle: other) was 107 % of control. The T/C (endpoint: mean survival time, dose: 400.0 mg/kg/injection, schedule: Q01DX001 (ip), vehicle: other) was 109 % of control.
With `CCOC(=O)CCC(NC(=O)c1ccc(N(CC)Cc2cnc3nc(N)nc(N)c3n2)cc1)C(=O)OCC` (stereo not given) the T/C (endpoint: mean survival time, dose: 1.56 mg/kg/injection, schedule: Q01DX009 (ip), vehicle: Klucel (hydroxypropylcellulose) (HPC)) was 152 % of control.
For `ClC1CC[N-]CC1.ClC1CC[N-]CC1.[Cl][Pt+2]([Cl])([Cl])[Cl]`, the T/C (endpoint: mean survival time, dose: 12.5 mg/kg/injection, schedule: Q01DX009 (ip), vehicle: water) was 123 % of control and the T/C (endpoint: mean survival time, dose: 25.0 mg/kg/injection, schedule: Q01DX009 (ip), vehicle: water) was 110 % of control.
In the case of `C#CC1(NC(=O)NC(C)(C)C)CCCCC1`, the T/C [1] is reported as 93 % of control and the T/C [2] is reported as 86 % of control.
For `[NH-]S(=O)(=O)O.[NH-]S(=O)(=O)O.[NH2-].[NH2-].[Pt+4]`, the T/C (endpoint: mean survival time, dose: 10.0 mg/kg/injection, schedule: Q04DX003 (ip), vehicle: saline with Tween-80) was 95 % of control, the T/C (endpoint: mean survival time, dose: 20.0 mg/kg/injection, schedule: Q04DX003 (ip), vehicle: saline with Tween-80) was 97 % of control and the T/C (endpoint: mean survival time, dose: 40.0 mg/kg/injection, schedule: Q04DX003 (ip), vehicle: saline with Tween-80) was 97 % of control.
In the case of `O=C(Nc1ncnc2c1[nH]c(=O)n2C1OC(CO)C2OC21)c1ccccc1` (stereo not given), the T/C (endpoint: mean survival time, dose: 12.5 mg/kg/injection, schedule: Q01DX005 (ip), vehicle: distilled water + Tween-80) is reported as 92 % of control, the T/C (endpoint: mean survival time, dose: 25.0 mg/kg/injection, schedule: Q01DX005 (ip), vehicle: distilled water + Tween-80) is reported as 100 % of control and the T/C (endpoint: mean survival time, dose: 50.0 mg/kg/injection, schedule: Q01DX005 (ip), vehicle: distilled water + Tween-80) is reported as 95 % of control. The T/C (endpoint: mean survival time, dose: 100.0 mg/kg/injection, schedule: Q01DX005 (ip), vehicle: distilled water + Tween-80) was 90 % of control and the T/C (endpoint: mean survival time, dose: 200.0 mg/kg/injection, schedule: Q01DX005 (ip), vehicle: distilled water + Tween-80) was 93 % of control.
`NC(CO)C(O)C(O)C(O)CO` (stereo not given) was tested, and the T/C (endpoint: mean survival time, dose: 100.0 mg/kg/injection, schedule: Q01DX001 (ip), vehicle: saline) was 106 % of control, the T/C (endpoint: mean survival time, dose: 200.0 mg/kg/injection, schedule: Q01DX001 (ip), vehicle: saline) was 98 % of control and the T/C (endpoint: mean survival time, dose: 400.0 mg/kg/injection, schedule: Q01DX001 (ip), vehicle: saline) was 103 % of control.
In the case of `CCOC(=O)C(CCC(C)C)C(C)=O` (stereo not given), the T/C (endpoint: mean survival time, dose: 100.0 mg/kg/injection, schedule: Q01DX005 (ip), vehicle: saline with Tween-80) is reported as 93 % of control, the T/C (endpoint: mean survival time, dose: 200.0 mg/kg/injection, schedule: Q01DX005 (ip), vehicle: saline with Tween-80) is reported as 103 % of control and the T/C (endpoint: mean survival time, dose: 400.0 mg/kg/injection, schedule: Q01DX005 (ip), vehicle: saline with Tween-80) is reported as 106 % of control.
`C1CCC2[N-]CC3CCCCC3[N-]CC3CCCCC3[N-]CC3CCCCC3[N-]CC2C1.[Cu]` (stereo not given) was tested, and the T/C (endpoint: mean survival time, dose: 0.39 mg/kg/injection, schedule: Q01DX009 (ip), vehicle: saline) was 118 % of control, the T/C (endpoint: mean survival time, dose: 0.78 mg/kg/injection, schedule: Q01DX009 (ip), vehicle: saline) was 116 % of control and the T/C (endpoint: mean survival time, dose: 1.56 mg/kg/injection, schedule: Q01DX009 (ip), vehicle: saline) was 104 % of control. The T/C (endpoint: mean survival time, dose: 3.12 mg/kg/injection, schedule: Q01DX009 (ip), vehicle: saline) was 118 % of control and the T/C (endpoint: mean survival time, dose: 6.25 mg/kg/injection, schedule: Q01DX009 (ip), vehicle: saline) was 119 % of control.
With `CCOC(=O)C(=CN1CCCCC1)C(=O)OCC` the T/C [1] was 92 % of control, the T/C [2] was 94 % of control and the T/C [3] was 96 % of control.
For `CCCCCCCCCCCCNC(=O)C[n+]1cccc(C(=O)N(C)C)c1`, the T/C (endpoint: mean survival time, dose: 5.0 mg/kg/injection, schedule: Q01DX009 (ip), vehicle: saline with Tween-80) was 114 % of control, the T/C (endpoint: mean survival time, dose: 10.0 mg/kg/injection, schedule: Q01DX009 (ip), vehicle: saline with Tween-80) was 97 % of control and the T/C (endpoint: mean survival time, dose: 20.0 mg/kg/injection, schedule: Q01DX009 (ip), vehicle: saline with Tween-80) was 98 % of control.
In the case of `COc1ccc(NC(=O)N(CCO)c2ccccc2)c(Cl)c1`, the T/C (endpoint: mean survival time, dose: 50.0 mg/kg/injection, schedule: Q01DX009 (ip), vehicle: Klucel (hydroxypropylcellulose) (HPC)) is reported as 107 % of control, the T/C (endpoint: mean survival time, dose: 100.0 mg/kg/injection, schedule: Q01DX009 (ip), vehicle: Klucel (hydroxypropylcellulose) (HPC)) is reported as 104 % of control and the T/C (endpoint: mean survival time, dose: 200.0 mg/kg/injection, schedule: Q01DX009 (ip), vehicle: Klucel (hydroxypropylcellulose) (HPC)) is reported as 107 % of control.
With `Cn1c(=O)[nH]c2nc(-c3ccccc3)[nH]c2c1=O` the T/C (endpoint: mean survival time, dose: 12.5 mg/kg/injection, schedule: Q01DX005 (ip), vehicle: other) was 89 % of control, the T/C (endpoint: mean survival time, dose: 25.0 mg/kg/injection, schedule: Q01DX005 (ip), vehicle: other) was 87 % of control and the T/C (endpoint: mean survival time, dose: 50.0 mg/kg/injection, schedule: Q01DX005 (ip), vehicle: other) was 86 % of control. The T/C (endpoint: mean survival time, dose: 100.0 mg/kg/injection, schedule: Q01DX005 (ip), vehicle: other) was 86 % of control and the T/C (endpoint: mean survival time, dose: 200.0 mg/kg/injection, schedule: Q01DX005 (ip), vehicle: other) was 87 % of control.
With `COC1OC(CNC(=O)N(C)N=O)C(O)C(O)C1O` (stereo not given) the T/C (endpoint: mean survival time, dose: 33.0 mg/kg/injection, schedule: Q01DX009 (ip), vehicle: saline) was 120 % of control and the T/C (endpoint: mean survival time, dose: 113.0 mg/kg/injection, schedule: Q01DX009 (ip), vehicle: saline) was 153 % of control.
